Measured values from patent publication US20260083789A1, “FORMULATION FOR STIMULATING HAIR GROWTH AND IMPROVING QUALITY AND METHOD OF PREPARATION OF THE SAME” (ARJUNA NATURAL PRIVATE LIMITED, priority 2022, published 2026).

Legend:
[1] = system: Human dermal fibroblasts (HDFa) cells; assay: MTT assay, cell viability / proliferation; format: cell-based; settings: HDFs
Experimental: Human dermal fibroblasts (HDFa) cells were maintained in DMEM high glucose media (Himedia) with 10% FBS and 40 units/ml of penicillin & 40 μg/mL of streptomycin (Thermo Fisher) in 37° C. humidified chamber with 5% CO2. Cells were passaged after every 2-3 days using trypsin-EDTA.
Cells were trypsinized, centrifuged and resuspended in culture medium. Cells and then counted by trypan blue method using haemocytometer and plated at 5000 cells per 50 μl into wells of a 96 well microtiter plate. The cells were then incubated overnight under conditions appropriate for the cell line for adherence. […] 10 μl MTT reagent was then added to each well, after respective time period followed by incubation for 4 hours. After 4 hours, when the purple precipitate was clearly visible under the microscope, supernatant was removed carefully by pipette and 100 μl of solubilization solution (DMSO) was added to all wells. The plate was shaken softly for 20 minutes in the dark at room temperature. Then, the absorbance was taken of each well, including the blanks, at 570 nm with reference wavelength at 630 nm in a microtiter plate reader. The average values were determined from triplicate readings and subtracted the average value for the blank.

[2] = system: HDFs; assay: In vitro cell based scratch assay (wound healing); set-up: species or system human; settings: negative control 89.798 %
Experimental: In vitro cell based scratch assay is one of the most apt and economic procedures for preliminary examination of wound healing potential of any medicinal extract. […] Cell migration was monitored at 0 hour, 24 hours and 48 hours and wound closure distance was calculated by Image J software.

Nc1cc(N2CCCCC2)nc(N)[n+]1[O-] [Minoxidil, 2,4-diamino-6 piperidino-pyrimidine-3-oxide]
time at which cell proliferation peaked [1]: 72 h
time to show efficacy / increase the rate of cell proliferation [1]: 48 h
cell proliferation in relation to concentration ([1]; in contrast to the extract): increased cell proliferation at lower concentrations
closure of the gap created by the scratch [2]: 89.358%
